Tests used:
[1] = system: NFκB; assay: TNF-α-induced NFκB luciferase reporter assay in stably-transfected human embryonic kidney cells 293; type: cell-based; details: for IC50: human embryonic kidney cells 293 NFκB reporter, TNF-α 2 ng/mL, 6 h, read-out: IC50, inhibition of TNF-α-induced NFκB activity
Method: Activation of NFκB may promote cell proliferation or prevent cell death through apoptosis. Inhibition of NFκB signaling has potential application for the treatment or prevention of cancer; some inhibitors are known. […] […].
We employed human embryonic kidney cells 293 Panomic (Fremont, CA, USA) for monitoring changes occurring along the NFκB pathway. Stable constructed cells were seeded into sterile 96-well plate at 20 × 10^3 cells per well. Cells maintained in Dulbecco’s modified Eagle’s medium (DMEM) Invitrogen Co. (Carlsbad, CA, USA), supplemented with 10% FBS, 100 units/mL penicillin, 100 µg/mL streptomycin, 2 mM L-glutamine. After 48 h incubation, the medium was replaced and cells were treated with various concentration of test substances dissolved in PBS. TNF-α (Human, Recombinant, E. coli, Calbiochem, Gibbstown, NJ, USA) was used as an activator at a concentration of 2 ng/mL (0.14 nM). The plate was incubated for 6 h. Spent medium was discarded and the cells were washed once with PBS. Cells were lysed using 50 µL (for 96-well plate) Reporter Lysis Buffer from Promega, by incubating for 5 min on a shaker, and stored at −80 °C. The luciferase assay was performed using the Luc assay system from Promega (Madison, WI, USA). The gene product, luciferase enzyme, reacts with luciferase substrate, emitting light which was detected using a luminometer (LUMIstar Galaxy BMG). Data for NFκB constructs are expressed as IC50 values (i.e., concentration required to inhibit TNF-activated NFκB activity by 50%).

[2] = system: RAW 264.7 cells; assay: Cell viability (SRB) of RAW 264.7 cells in the NO assay; type: cell-based; details: 50 µM
[3] = biological target: T1, human COX-2 (Homo sapiens, UniProt P35354); assay: COX-2 inhibition assay (LC-MS/MS of PGE2); type: biochemical; details: for IC50: human COX-2; for Selectivity COX-1/COX-2: ratio of the IC50 values (COX-1/COX-2)
T1 sequence (P35354 18-604): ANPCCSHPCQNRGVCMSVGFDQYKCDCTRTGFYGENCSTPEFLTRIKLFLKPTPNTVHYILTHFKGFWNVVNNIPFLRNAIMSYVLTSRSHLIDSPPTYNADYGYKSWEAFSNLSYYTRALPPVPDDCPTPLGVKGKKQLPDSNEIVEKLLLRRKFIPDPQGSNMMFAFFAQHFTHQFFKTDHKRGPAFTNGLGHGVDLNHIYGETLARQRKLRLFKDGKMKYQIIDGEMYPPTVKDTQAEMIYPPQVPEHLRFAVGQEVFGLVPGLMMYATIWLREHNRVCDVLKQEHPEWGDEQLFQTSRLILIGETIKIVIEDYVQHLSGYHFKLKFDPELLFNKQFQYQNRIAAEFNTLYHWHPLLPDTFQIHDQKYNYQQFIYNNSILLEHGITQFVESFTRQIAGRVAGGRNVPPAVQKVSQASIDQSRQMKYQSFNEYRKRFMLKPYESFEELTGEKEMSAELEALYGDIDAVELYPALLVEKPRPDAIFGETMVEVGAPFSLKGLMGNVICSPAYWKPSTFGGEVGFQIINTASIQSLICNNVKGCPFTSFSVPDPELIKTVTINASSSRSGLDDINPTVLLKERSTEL
Method: Each COX reaction was initiated by adding 20 µL of arachidonic acid in Tris-HCl (pH 8.0) buffer to give a final concentration of 5 µM. The reaction was terminated after 2 min by adding 20 µL of 2.0 M HCl. The surrogate standard PGE2-d4 was added to correct for errors or degradation during sample handling and for variation in injection volume or instrument response during LC-MS/MS. After 30 min, PGE2 and its surrogate standard were extracted from each incubation mixture using 800 µL of hexane/ethyl acetate (50:50, v/v). The organic phase was removed, evaporated to dryness, and reconstituted in 100 µL methanol/water (50:50, v/v) for analysis using LC-MS/MS with an Applied Biosystems AP4000 triple quadrupole mass spectrometer as described previously. The concentration of PGE2 in each sample was measured using LC-MS/MS, and the percent of COX inhibition by each test solution was determined by comparing the amount of PGE2 produced in the experiment with that produced in the negative control incubation. For IC50 value determination, 12 different concentrations of each inhibitor were assayed three times. The IC50 value of each inhibitor toward COX-1 or COX-2 was determined by plotting and analyzing the inhibition curve data using Graph Pad Prism 5 software. The selectivity of each inhibitor was calculated as the ratio of the IC50 values (COX-1/COX-2).

[4] = system: HL-60 cells; assay: NIM-DAPI cell cycle analysis / apoptosis of HL-60 cells; type: cell-based; details: 24 h incubation, various concentrations
Method: Figure 3 NIM-DAPI cell cycle analysis of HL-60 cells. HL-60 cells (2 × 10^5 cells/well) were treated with different concentrations of the indicated compounds for 24 h. The media were discarded, and 4',6-diamidino-2-phenylindole solution (NIM-DAPI; Beckman Coulter) was added just before the measurement using a Cell Lab Quanta™ SC (Beckman Coulter) flow cytometer. NIM-DAPI-stained cells were analyzed after excitation. […] Results are representative of two experiments in triplicate.
HL-60 cells (2 × 10^5 cells/well) were treated with samples for 24 h. The media were discarded and nuclear isolation medium (4',6-diamidino-2-phenylindole, NIM-DAPI; Beckman Coulter) was added just before the measurement using a Cell Lab Quanta™ SC (Beckman Coulter) flow cytometer. NIM-DAPI-stained cells were analyzed after excitation.
HL-60 cells at a concentration of 2 × 10^6 cells/mL were incubated with testing phenazines at different concentrations for 24 h. The cells were fixed with 1% paraformaldehyde in PBS and treated with ethanol to permiabilize the cells. Positive and negative control cells were provided already fixed. The DNA labeling reaction was carried out at 22–24 °C overnight. This assay was run on a Cell Lab Quanta™ SC, Beckman Coulter flow cytometer equipped with a 488 nm Argon laser as the light source. Propidium Iodide (total cellular DNA) and Fluorescein (apoptotic cells) were used. Propidium Iodide (PI) fluoresces at about 623 nm and Fluorescein at 520 nm when excited at 488 nm. Following the manufacturer’s instructions, an APO-BRDU™ Kit (Phoenix Flow Systems, Inc.) with a two color TUNEL (Terminal deoxynucleotide transferase dUTP Nick End Labeling) capability for labeling DNA breaks and total cellular DNA to detect apoptotic cells was used.

[5] = system: NO production in LPS-induced RAW 264.7 cells; assay: LPS-induced NO production in RAW 264.7 cells (Griess reagent); details: for NO % inhibition (50 µM): LPS-induced RAW 264.7 cells; for inhibition at 50 µM / IC50: Mus musculus; for inhibition at 50 µM: RAW264.7, read-out: NO % inhibition (50 µM), LPS-induced RAW 264.7 cells, 50 µM; for IC50: RAW264.7, read-out: NO IC50
Method: The amount of nitrite was measured using the Griess reagent to assess the NO production [47, 48]. […] The cells were treated with various concentrations of compounds dissolved in phenol-red free DMEM for 30 min followed by 1 μg/mL of LPS treatment for 24 h. […] The standard curve was created by using known concentrations of sodium nitrite.

[6] = phenazine 1 compared with lavanducyanin

## CC1=C(Cn2c3cccc(=O)c-3nc3ccccc32)CCC(C)(C)C1 [Lavanducyanin 3, lavanducyanin]
[1]
  IC50: 16.3 µM
[2]
  NO % cell survival: 58.3 ± 4.6%
[3]
  IC50: 34 ± 1.1 µM
  Selectivity COX-1/COX-2: 0.88
[4]
  accumulation of HL-60 cells in subG1 phase (apoptosis): accumulated in the subG1 phase of the cell cycle
[5]
  NO % inhibition (50 µM): 97 ± 0.7%
  inhibition at 50 µM: > 90%
  IC50: 8 ± 0.39 µM

## CC1=C(Cn2c3ccc(Br)c(=O)c-3nc3ccccc32)CCC(C)(C)C1 [Phenazine 1]
[1]
  IC50: 4.1 µM
[1]; [6]
  enhancement of NFκB inhibitory activity by bromination at position-2: approximately 4 fold
[2]
  NO % cell survival: 68.9 ± 3.8%
[3]
  IC50: 4 ± 0.41 µM
  Selectivity COX-1/COX-2: 2.75
[3]; [6]
  enhancement of inhibition of the catalytic activity of COX-2: ~10 fold
[3]; listed as phenazine 1
  Selectivity COX-1/COX-2: approximately 3
[4]
  accumulation of HL-60 cells in subG1 phase (apoptosis): accumulated in the subG1 phase of the cell cycle
[5]
  NO % inhibition (50 µM): 40.1 ± 5%
  inhibition at 50 µM: 40%
  IC50: > 48.6 µM

## CC(C)=CCn1c2ccc(Br)c(=O)c-2nc2ccccc21 [Phenazine 2]
[1]
  IC50: 24.2 µM
[2]
  NO % cell survival: 56.0 ± 5.1%
[3]
  IC50: 7.2 ± 0.13 µM
  Selectivity COX-1/COX-2: 0.78
[4]
  accumulation of HL-60 cells in subG1 phase (apoptosis): accumulated in the subG1 phase of the cell cycle
[5]
  NO % inhibition (50 µM): 98.1 ± 0.5%
  inhibition at 50 µM: > 90%
  IC50: 15.1 ± 2.7 µM

Reference: paper PMC3297008, “Novel Marine Phenazines as Potential Cancer Chemopreventive and Anti-Inflammatory Agents” (Marine Drugs, 2012)
